Experiment: Solubility of the compound of formula (i)
Format: physicochemical
Experimental: Solubility of this compound is 1.09 μg/mL in Solution 1 (pH 1.2) defined in the Japanese Pharmacopoeia at 37° C., 0.88 μg/mL in Solution 2 (pH 6.8) defined in the Japanese Pharmacopoeia at 37° C., 0.53 μg/mL in a phosphate buffer (pH 7.2) at 37° C., and about 2 mg/mL in Panasate at room temperature.

solubility (Solution 1 defined in the Japanese Pharmacopoeia, simulated gastric fluid, Solution 1 (pH 1.2) defined in the Japanese Pharmacopoeia at 37° C.): 1.09 µg/mL | solubility (Solution 2 defined in the Japanese Pharmacopoeia, aqueous buffer, Solution 2 (pH 6.8) defined in the Japanese Pharmacopoeia at 37° C.): 0.88 µg/mL | solubility (aqueous buffer, phosphate buffer (pH 7.2) at 37° C.): 0.53 µg/mL | solubility (oil or lipid, in Panasate at room temperature): ~2000 µg/mL
Compound: O=C(Cc1c(F)cccc1Cl)Nc1onc(-c2ccc(F)cc2)c1-c1ccncn1 [formula (i)]
